Earlier results in patent US20250049733A1, “PHARMACEUTICAL COMPOSITION FOR THE TREATMENT OF INFECTIOUS RESPIRATORY DISEASES CAUSED BY INFLUENZA AND SARS-COV-2, AMONG OTHERS” (ALPARIS, S.A. DE C.V., priority 2021, published 2025).
Values after ≈ are worked out from the molar mass of the structure shown.

How the values were obtained:
[1] = system: Respiratory Syncytal Virus (RSV)
[2] = system: tumor necrosis factor-alpha (TNF-α) and interleukin-6 (IL-6); details: randomized controlled trials
rheumatoid arthritis = details: 8 weeks of treatment with 1 g of curcumin daily; meta-analysis
[3] = in vivo

In the case of COc1cc(/C=C/C(=O)CC(=O)/C=C/c2ccc(O)c(OC)c2)ccc1O [curcumin, (1E,6E)-1,7-bis(4-hydroxy-3-methoxyphenyl)-1,6-heptadiene-3,5-dione], the “IC50, antiviral action against SARS-CoV2” value (SARS-CoV2 viruses) is listed as 7.9 µg/mL (≈ 21.4 µM), the “IC50, antiviral action against Respiratory Syncytal Virus (RSV)” value [1] is listed as 10 µg/mL (≈ 27.1 µM) and the “IC50, antiviral action against influenza” value (influenza) is listed as 0.17 µg/mL (≈ 0.461 µM). For the same compound, the “IC50, antiviral action against Hepatitis” value (Hepatitis) was 1.68 µg/mL (≈ 4.56 µM), the “IC50, antiviral action against Herpes simplex virus” value (Herpes simplex virus) was 11.05 µg/mL (≈ 30 µM) and the “secretion of TNF-α and IL-6” value [2] was “significantly reduces”. For the same compound, the “symptoms associated with inflammation in rheumatoid arthritis” value (rheumatoid arthritis) was “can reduce symptoms associated with inflammation” and the half-life [3] was “about 8 hours”.
